This is an account of results in patent US8962660B2 (Bristol-Myers Squibb Company, priority 2013, dated 2015).

This assay addresses T1, human GPR120 (Homo sapiens, UniProt Q5NUL3).
T1 construct: expressed in transfected cells; host or cells: CHOA12 cells
T1 sequence (Q5NUL3 1-361): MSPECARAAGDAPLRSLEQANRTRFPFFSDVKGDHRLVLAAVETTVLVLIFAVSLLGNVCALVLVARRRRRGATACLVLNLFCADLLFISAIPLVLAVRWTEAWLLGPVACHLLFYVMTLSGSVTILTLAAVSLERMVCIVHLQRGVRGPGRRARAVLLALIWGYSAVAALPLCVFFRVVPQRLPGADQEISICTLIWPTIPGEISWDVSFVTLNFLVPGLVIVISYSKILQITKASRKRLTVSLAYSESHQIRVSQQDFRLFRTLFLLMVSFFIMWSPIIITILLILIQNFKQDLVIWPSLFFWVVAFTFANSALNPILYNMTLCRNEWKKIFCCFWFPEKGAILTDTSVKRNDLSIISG
In words: GPR120 pERK AlphaScreen SureFire assay (human). Format: cell-based. Particulars: CHO cells stably transfected with short form of human GPR120. Put shortly: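 CHOA12 cells stably expressing short-form human GPR120, serum-starved 2 h, were stimulated 7 min at 37 °C with compound (33.33 μM–0.56 nM, 11-point). pERK read by AlphaScreen SureFire; activation normalized to 50 μM linolenic acid and DMSO blank, EC50 by 4-parameter fit.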
`Cc1cc(Oc2cc(F)cc(C34CCC(CCOCC(=O)O)(CC3)CO4)c2)ccc1F` [Example 81, 2-(2-(1-(3-fluoro-5-(4-fluoro-3-methylphenoxy)phenyl)-2-oxabicyclo [2.2.2]octan-4-yl)ethoxy) acetic acid] displayed a 50% effective concentration (EC50) of 0.52 µM. The compound `COc1cccc(Oc2cc(F)cc(C34CCC(CCOCC(=O)O)(CC3)CO4)c2)c1` [Example 82, 2-(2-(1-(3-fluoro-5-(3-methoxyphenoxy)phenyl)-2-oxabicyclo[2.2.2]octan-4-yl)ethoxy)acetic acid] gave a 50% effective concentration (EC50) of 0.81 µM. Compared with the last compound, the EC50 is about 1.6-fold higher. Compound `Cc1ccc(Oc2cc(F)cc(C34CCC(CCOCC(=O)O)(CC3)CO4)c2)cc1` [Example 83, 2-(2-(1-(3-fluoro-5-(p-tolyloxy)phenyl)-2-oxabicyclo[2.2.2]octan-4-yl)ethoxy)acetic acid] returned an EC50 of 0.32 µM. For `COc1cc(F)cc(Oc2cc(F)cc(C34CCC(CCOCC(=O)O)(CC3)CO4)c2)c1` [Example 84, 2-(2-(1-(3-fluoro-5-(3-fluoro-5-methoxyphenoxy)phenyl)-2-oxabicyclo [2.2.2]octan-4-yl)ethoxy) acetic acid], the midpoint of the response, the EC50, lay at 0.47 µM. The EC50 values of the last two compounds are within 1.5-fold of each other. For `O=C(O)COCCC12CCC(c3cc(F)cc(Oc4ccc(F)cc4)c3)(CC1)OC2` [Example 85, 2-(2-(1-(3-fluoro-5-(4-fluorophenoxy)phenyl)-2-oxabicyclo[2.2.2]octan-4-yl)ethoxy)acetic acid] the value was 0.31 µM; for `COc1cc(Oc2cc(F)cc(C34CCC(CCOCC(=O)O)(CC3)CO4)c2)ccc1F` [Example 86, 2-(2-(1-(3-fluoro-5-(4-fluoro-3-methoxyphenoxy)phenyl)-2-oxabicyclo [2.2.2]octan-4-yl)ethoxy) acetic acid], 0.85 µM; for `O=C(O)COCCC12CCC(c3ccc(F)c(Oc4ccccc4)c3)(CC1)OC2` [Example 87, 2-(2-(1-(4-fluoro-3-phenoxyphenyl)-2-oxabicyclo[2.2.2]octan-4-yl)ethoxy)acetic acid], 0.41 µM. `O=C(O)COCCC12CCC(c3ccc(F)c(Oc4ccc(F)cc4)c3)(CC1)OC2` [Example 88, 2-(2-(1-(4-fluoro-3-(4-fluorophenoxy)phenyl)-2-oxabicyclo[2.2.2]octan-4-yl)ethoxy)acetic acid]: the 50% effective concentration (EC50) was 0.34 µM. `Cc1ccc(Oc2cc(C34CCC(CCOCC(=O)O)(CC3)CO4)ccc2F)cc1F` [Example 89, 2-(2-(1-(4-fluoro-3-(3-fluoro-4-methylphenoxy)phenyl)-2-oxabicyclo [2.2.2]octan-4-yl)ethoxy) acetic acid]: it took 0.35 µM to reach a half-maximal effect (EC50). The EC50 values of the last two compounds are within 1.5-fold of each other. On to `COc1cc(Oc2ccccc2)cc(C23CCC(CCOCC(=O)O)(CC2)CO3)c1` [Example 90, 2-(2-(1-(3-methoxy-5-phenoxyphenyl)-2-oxabicyclo[2.2.2]octan-4-yl)ethoxy)acetic acid], for which a half-maximal response (EC50) required 0.95 µM. Turning to `COc1cc(Oc2ccc(F)c(F)c2)cc(C23CCC(CCOCC(=O)O)(CC2)CO3)c1` [Example 91, 2-(2-(1-(3-(3,4-difluorophenoxy)-5-methoxyphenyl)-2-oxabicyclo[2.2.2]octan-4-yl)ethoxy)acetic acid], the EC50 came to 0.63 µM. `COc1cc(Oc2ccc(F)cc2)cc(C23CCC(CCOCC(=O)O)(CC2)CO3)c1` [Example 92, 2-(2-(1-(3-(4-fluorophenoxy)-5-methoxyphenyl)-2-oxabicyclo[2.2.2]octan-4-yl)ethoxy)acetic acid] yielded a half-maximal effective concentration (EC50) of 0.8 µM. Take `COc1cc(Oc2ccc(C)c(F)c2)cc(C23CCC(CCOCC(=O)O)(CC2)CO3)c1` [Example 93, 2-(2-(1-(3-(3-fluoro-4-methylphenoxy)-5-methoxyphenyl)-2-oxabicyclo[2.2.2]octan-4-yl)ethoxy)acetic acid]: the EC50 turned out to be 0.52 µM. `Cc1ccc(Oc2cc(F)cc(C34CCC(CCOCC(=O)NO)(CC3)CO4)c2)cc1F` [Example 94, 2-(2-(1-(3-Fluoro-5-(3-fluoro-4-methylphenoxy)phenyl)-2-oxabicyclo[2.2.2]octan-4-yl)ethoxy)-N-hydroxyacetamide] registered a 50% effective concentration (EC50) of 1.16 µM. Compared with the last compound, the EC50 is about 2.2-fold higher. In the case of `O=C(O)COCCC12CCC(c3cc(F)c(F)c(Oc4ccc(F)cc4)c3)(CC1)OC2` [Example 95, 2-(2-(1-(3,4-Difluoro-5-(4-fluorophenoxy)phenyl)-2-oxabicyclo[2.2.2]octan-4-yl)ethoxy) acetic acid], the midpoint of the response, the EC50, lay at 0.35 µM. Consider `O=C(O)C1CC1COC12CCC(c3cccc(Oc4ccccc4)c3)(CC1)OC2` (centres unmarked) [Example 96, 2-(((1-(3-Phenoxyphenyl)-2-oxabicyclo[2.2.2]octan-4-yl)oxy)methyl) cyclopropanecarboxylic acid], for which the concentration giving a half-maximal response (EC50) was 1.68 µM. Turning to `O=C(O)C1CC1COCC12CCC(c3cccc(Oc4ccccc4)c3)(CC1)OC2` (stereo not drawn) [Example 97, Trans-2-(((1-(3-phenoxyphenyl)-2-oxabicyclo[2.2.2]octan-4-yl)methoxy)methyl) cyclopropane carboxylic acid], the concentration giving a half-maximal response (EC50) came out at 0.39 µM. With `COc1ccc(Oc2cccc(C34CCC(CCOCC(=O)O)(CC3)OC4)c2)cc1F` [Example 100, 2-(2-(4-(3-(3-Fluoro-4-methoxyphenoxy)phenyl)-2-oxabicyclo[2.2.2]octan-1-yl)ethoxy) acetic acid], the midpoint of the response, the EC50, lay at 0.55 µM. For `Cc1ccc(Oc2cccc(C34CCC(CCOCC(=O)O)(CC3)OC4)c2)cc1F` [Example 101] the value was 0.32 µM. The result for `COc1cccc(Oc2cccc(C34CCC(CCOCC(=O)O)(CC3)OC4)c2)c1` [Example 102] reads 0.66 µM; that for `Cc1cc(Oc2cccc(C34CCC(CCOCC(=O)O)(CC3)OC4)c2)ccc1F` [Example 103], 0.54 µM. Compound `O=C(O)COCCC12CCC(c3cccc(Oc4cccnc4)c3)(CC1)CO2` [Example 104] registered an EC50 of 7.78 µM. For `O=C(O)COCCC12CCC(c3cccc(Oc4ccc(F)cc4)c3)(CC1)CO2` [Example 105] the value was 3.44 µM. Compound `Cc1ccc(Oc2cccc(C34CCC(CCOCC(=O)O)(CC3)OC4)c2)cc1` [Example 106] had an EC50 of 0.58 µM. For `N#Cc1cccc(Oc2cccc(C34CCC(CCOCC(=O)O)(CC3)OC4)c2)c1` [Example 107] the value was 1.87 µM. The result for `Cc1ccc(Oc2cc(F)cc(C34CCC(CCOCC(=O)O)(CC3)OC4)c2)cc1F` [Example 108, 2-(2-(4-(3-Fluoro-5-(3-fluoro-4-methylphenoxy)phenyl)-2-oxabicyclo[2.2.2]octan-1-yl)ethoxy)acetic acid] reads 0.73 µM; that for `O=C(O)COCCC12CCC(c3cccc(Oc4ccccn4)c3)(CC1)CO2` [Example 109, 2-(2-(4-(3-(Pyridin-2-yloxy)phenyl)-2-oxabicyclo[2.2.2]octan-1-yl)ethoxy)acetic acid], 5.55 µM; that for `O=C(O)COCCCC12CCC(c3cccc(Oc4ccccc4)c3)(CC1)CO2` [Example 110, 2-(3-(4-(3-Phenoxyphenyl)-2-oxabicyclo[2.2.2]octan-1-yl)propoxy)acetic acid], 0.49 µM. `O=C(O)COCCC12CCC(c3cccc(OC4CCCCC4)c3)(CC1)CO2` [Example 111, 2-(2-(4-(3-(Cyclohexyloxy)phenyl)-2-oxabicyclo[2.2.2]octan-1-yl)ethoxy) acetic acid] displayed an EC50 of 0.64 µM. `Cc1ccc(Oc2cc(C34CCC(CCOCC(=O)O)(CC3)OC4)ccc2F)cc1F` [Example 112] returned an EC50 of 0.27 µM. Compared with the last compound, the EC50 is about 2.4-fold lower. For `Cc1ccc(Oc2cc(C34CCC(CCOCC(=O)O)(CC3)OC4)ccc2F)cc1C` [Example 113] the value was 0.86 µM.

`Cc1cc(Oc2cc(C34CCC(CCOCC(=O)O)(CC3)OC4)ccc2F)ccc1C#N` [Example 114] came in with a half-maximal effective concentration (EC50) of 2.73 µM. Compound `Cc1ccc(Oc2cccc(C34CCC(CCOCC(=O)O)(CC3)CO4)c2)cn1` [Example 115, 2-(2-(1-(3-(6-methylpyridin-3-yloxy)phenyl)-2-oxabicyclo[2.2.2]octan-4-yl)ethoxy)acetic acid] yielded an EC50 of 5.56 µM. In the case of `O=C(O)COCCC12CCC(c3cccc(Oc4ccc(F)c(F)c4)n3)(CC1)OC2` [Example 116, 2-(2-(1-(6-(3,4-Difluorophenoxy)pyridin-2-yl)-2-oxabicyclo[2.2.2]octan-4-yl)ethoxy) acetic acid], the EC50 was 1.15 µM. For `O=C(O)COCCC12CCC(c3cccc(Oc4cccc(O)c4)c3)(CC1)OC2` [Example 117, 2-(2-(1-(3-(3-Hydroxyphenoxy)phenyl)-2-oxabicyclo[2.2.2]octan-4-yl)ethoxy)acetic acid], the concentration for a half-maximal effect (EC50) turned out to be 5.21 µM. Against the preceding compound, the EC50 is about 4.5-fold higher. Turning to `CCc1cccc(Oc2cccc(C34CCC(CC[C@@H]5C[C@H]5C(=O)O)(CC3)CO4)c2)c1` [Example 118, (1R,2R)-2-(2-(1-(3-(3-Ethylphenoxy)phenyl)-2-oxabicyclo[2.2.2]octan-4-yl)ethyl)cyclo-propane carboxylic acid], the half-maximal effective concentration (EC50) was 1.89 µM. In turn, `CCc1cccc(Oc2cccc(C34CCC(CCOCC(=O)O)(CC3)CO4)c2)c1` [Example 119, 2-(2-(1-(3-(3-Ethylphenoxy)phenyl)-2-oxabicyclo[2.2.2]octan-4-yl)ethoxy)acetic acid] yielded an EC50 of 1.6 µM. The compound `O=C(O)C1CC1CCCC12CCC(c3cccc(Oc4ccccc4)c3)(CC1)OC2` (centres unmarked) [Example 120, 2-(3-(1-(3-Phenoxyphenyl)-2-oxabicyclo[2.2.2]octan-4-yl)propyl) cyclopropane carboxylic acid] gave an EC50 of 2.21 µM.
